Assay: gradient 5% acetonitrile 3 min, to 50% in 2 min, to 85% in 15 min, held 3 min, 100 µL/min
Conditions: column: Zorbax Extend-C18 2.1 x 50 mm; eluents: water / acetonitrile, 0.1% formic acid
Outline: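 A Zorbax Extend-C18 column (2.1 × 50 mm, 1.8 μm) run at 100 μL/min with water and acetonitrile, both containing 0.1% formic acid, separated mixtures of ~100 pure standards. The HPLC was coupled to a quadrupole time-of-flight mass spectrometer operated in positive and negative ionization mode, with dead and dwell volumes of 40 μL and 900 μL. Each retention time was taken from a computationally picked adduct peak that was then manually inspected.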

SMILES | RP-LC retention time [s]
C#CC(c1ccccc1)(c1ccccc1)n1ccnc1 | 739
CC(C)CNC(=O)NCCn1nnc2cc(C(=O)N3CCCC3)ccc21 | 618
O=C(N1CCN(c2cc(-c3ccc(Cl)cc3)[nH]n2)CC1)C1(c2ccccc2)CC1 | 924
O=C(CC1CCCC1)N1CCN(c2ncccc2-c2nnc(C3CC3)o2)CC1 | 828
Cc1noc(-c2nc(-c3cccc(C(F)(F)F)c3)no2)n1 | 1080
O=C(NCC1CCCO1)C1CCN(c2cnn(Cc3ccccc3)c(=O)c2)CC1 (stereo unspecified) | 667
O=C(Nc1cccc([N+](=O)[O-])c1)C1(c2cccs2)CCOCC1 | 558
COc1ccc(S(=O)(=O)N2CCCC(C(=O)Nc3ccc4c(c3)OCCO4)C2)cc1Cl (stereo unspecified) | 938
O=C(Cn1c(Cc2ccccc2)nc2ccccc21)N1CCCCCC1 | 670
O=C(Cc1ccsc1)Nc1cnc(-c2ccccc2)nc1 | 890
CC(C)Cn1c(=O)c2cc(C(=O)NC(C)c3ccco3)nn2c2ccccc21 (stereo unspecified) | 1030
Cc1ccc(NC(=O)Cn2nc(N3CCCCCC3)c3ccccc3c2=O)cc1F | 1170
Cc1ccc(NC(=O)Cn2c(C)nc3c(sc4nc(-c5ccccc5)ccc43)c2=O)cc1Cl | 1030
Cc1cc2nn(CC(=O)NCc3ccc(F)cc3)c(=O)n2c(-c2ccccc2)n1 | 744
O=C(Cn1ccc2ccc(N3CCCCCC3)nc21)N1CCC(N2CCCCC2)CC1 | 709
Cc1cnc(-c2ccccc2)n1C1CN(Cc2cccc(C#N)c2)C1 | 559
CCOC(=O)CNC(=O)N1CCN(Cc2nc3cccnc3n2-c2ccc(F)cc2)CC1 | 602
COCCN1CCC2(CC1)CN(Cc1cc(OC)cc(OC)c1)Cc1ccccc1O2 | 560
COc1ccc(-n2ccc(=O)c(-c3nc(-c4ccc(Br)cc4)no3)n2)cc1 | 984
Cn1c(SCC(=O)N2CCC(C(N)=O)CC2)nnc1-c1sc2ncccc2c1N | 577
CC1CC(C)OP(=O)(OCCC#N)O1 (stereo unspecified) | 650

SMILES | RP-LC retention time [s]
Cc1cc(C)cc(Nc2nc(C)cc3nn(CC(=O)N4CCOCC4)c(=O)n23)c1 | 601
CCc1nc2cc(N3CCC(C(=O)NCc4ccc5c(c4)OCO5)CC3)cnc2nc1CC | 799
COCC1CN(S(=O)(=O)c2cccc(C#N)c2)CCC1(F)F (stereo unspecified) | 892
COC(=O)C1CCN(C(=O)Cc2csc(Nc3ccc(F)cc3)n2)CC1 | 689
COC(=O)CC1=CC(SCC(=O)NC2CCc3ccccc32)=Nc2ccccc2N1 (stereo unspecified) | 547
CCN(CC)CCNC(=O)Cn1ncc2c3ccccc3n(Cc3ccccc3)c2c1=O | 605
CCc1nn(C(C)C(=O)NCCc2c[nH]c3ccccc23)c(=O)c2cc3occc3n12 (stereo unspecified) | 851
Cc1cc(C)c(OCC(=O)N(Cc2ccc(C)o2)C2CCS(=O)(=O)C2)c(C)c1 (stereo unspecified) | 1030
O=C(NC1CC1)c1nc(C(=O)N2CCN(c3ccccc3Cl)CC2)cs1 | 881
CCOC(=O)CNC(=O)N1CCN(c2nc3ccccc3nc2C(F)(F)F)CC1 | 881
Cc1cc(=O)n(CC(=O)NCc2ccccc2Cl)c(N2CCOCC2)n1 | 662
CCOC(=O)N1CCN(C(=O)c2cccc(-n3cnnn3)c2)CC1 | 619
CC(C)N1CCN(C(=O)c2n[nH]c3c2CCCC3)CC1 | 558
CC(C)Cn1c(=O)c2ccccc2n(Cc2nc(-c3ccc(Br)cc3)no2)c1=O | 1300
CCOC(=O)CCc1c(C)nn(-c2cc(N3CCCC3)ncn2)c1C | 868
Cc1nc(OCC(=O)NCc2ccc(N(C)C)cc2)c2c(C)c(C)oc2n1 | 653
Cn1nc(-c2nnc(-c3ccccc3Cl)o2)c2c1CCN(C(=O)c1ccc(C(F)(F)F)cc1)C2 | 943
O=C(NCc1ccccc1C(F)(F)F)C1CCN(c2nnc(-c3ccccc3)o2)CC1 | 892
O=C(CN1CCN(C(=O)Nc2ccc(Br)cc2)CC1=O)N1CCCCC1 | 701
Cc1ccc(Nc2nc(-c3ccc4c(c3)OCO4)cs2)nc1 | 863

The next lines start with the values.

RP-LC retention time [s] | SMILES
974 | COc1ccc(C(=C2C(=O)Nc3ccccc32)c2ccc(OC)cc2)cc1
900 | COc1cccc(-c2noc(C3CCCN3C(=O)Nc3ccc(OC)cc3C)n2)c1 (stereo unspecified)
927 | COc1ccc(NC(=O)Nc2c(-c3ccc(C)cc3)nc3ccccn23)cc1OC
709 | CCC1CN(C(=O)N2CCC(C(=O)NCCCN3CCCC3=O)CC2)c2ccccc2O1 (stereo unspecified)
659 | CCn1c(=O)c(NCc2ccccc2Cl)nc2ccncc21
839 | CCC1Oc2ccc(S(=O)(=O)N3CCC(C(=O)NCc4ccc(OC)cc4)CC3)cc2NC1=O (stereo unspecified)
794 | CC(C(=O)N1CCN(c2ncccn2)CC1)n1c2ccccc2c2cnn(C)c(=O)c21 (stereo unspecified)
816 | Cc1[nH]c2ccccc2c1C(=O)C(=O)Nc1ccccc1
974 | Cc1cc(C)cc(OCc2nc(CCN(C)C(=O)c3cccs3)no2)c1
884 | Cc1ccc(NC(=O)Cn2ncc3c(c2=O)N(CC2CC2)C(=O)CS3)cc1Cl
912 | CC(C)NC(=O)N1CCN(c2nc3ccccc3n(Cc3ccccc3)c2=O)CC1
856 | COc1ccc(OC)c(NC(=O)C2CCN(S(=O)(=O)c3ccc4c(c3)NC(=O)C(C)O4)CC2)c1 (stereo unspecified)
1030 | CCc1ccc(-n2nc(CO)c(C(=O)NCc3ccc4c(c3)OCO4)n2)cc1
723 | O=C(C1=CCN(Cc2ccc(F)cc2)CC1)N1CCN(c2ccccc2Cl)CC1
614 | O=C(Nc1ccc(C2(C(=O)N3CCN(c4ccccn4)CC3)CCC2)cc1)C1CC1
666 | CCOC(=O)c1noc2nc(C)nc(NCC3CCN(Cc4ccc(F)cc4)CC3)c12
705 | Cc1cc(C(=O)NCCN2CCN(c3cccc(C)c3C)CC2)n(-c2ccccc2)n1
626 | CCCN(C(=O)c1ccc(Br)cc1)C1(C(=O)NCc2ccccc2)CCN(C(C)=O)CC1
738 | Cc1ccccc1OCC(=O)Nc1nnc(C2CC(=O)N(c3ccc(F)cc3)C2)o1 (stereo unspecified)
821 | O=C(NCc1cccs1)C1CCN(Cc2cc3ccccc3n2Cc2ccccc2Cl)CC1
633 | Cc1nn(CC(=O)NCc2ccccn2)c(=O)c2nc(-c3ccccc3)sc12
634 | CC(=O)c1ccc(S(=O)(=O)N2CCC(CN3CCCC(C)C3)CC2)cc1 (stereo unspecified)
1060 | CCc1nc(-c2csc(S(=O)(=O)N3CCCC(C(=O)N(C)c4ccc(C)cc4)C3)c2)no1 (stereo unspecified)
634 | CCN1CCC2(CC1)N=C(c1ccc3c(c1)OCO3)CC(c1cc(Br)ccc1O)N2 (stereo unspecified)
653 | CCN1CCC2(CC1)OC(=O)C(C)=C2C(=O)NCCc1ccc(Cl)cc1
